Measurements reported in ChEMBL document CHEMBL1201862, “PubChem BioAssay data set” (2004).
Calls of active or inactive are those of the source.

Key:
Cytochrome P450 2C9 = Cytochrome P450 2C9 (Homo sapiens, UniProt P11712)
[1] = target: T1, RNA-binding protein pos-1 (Caenorhabditis elegans, UniProt G5EF15); assay: inhibitors of POS-1/mex-3 RNA binding, dose response, biochemical, fluorescence polarization (AID 1964);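 also: purified POS-1 fused to maltose binding protein made in E. coli; potency of compounds blocking POS-1 binding to fluorescent RNA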
T1 sequence (G5EF15 whole entry): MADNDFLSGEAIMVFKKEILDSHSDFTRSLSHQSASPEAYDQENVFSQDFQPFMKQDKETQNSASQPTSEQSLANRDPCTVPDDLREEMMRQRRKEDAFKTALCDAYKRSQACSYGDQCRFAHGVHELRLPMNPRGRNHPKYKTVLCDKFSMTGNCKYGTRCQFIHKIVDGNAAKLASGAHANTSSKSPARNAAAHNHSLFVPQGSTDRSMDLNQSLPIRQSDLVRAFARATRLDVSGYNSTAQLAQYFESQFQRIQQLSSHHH

[2] = target: T2, Zinc finger protein mex-5 (Caenorhabditis elegans, UniProt Q9XUB2); assay: MEX-5/TCR-2 RNA interaction inhibitors, dose response, biochemical, C. elegans, fluorescence polarization (AID 1960)
T2 sequence (Q9XUB2 whole entry): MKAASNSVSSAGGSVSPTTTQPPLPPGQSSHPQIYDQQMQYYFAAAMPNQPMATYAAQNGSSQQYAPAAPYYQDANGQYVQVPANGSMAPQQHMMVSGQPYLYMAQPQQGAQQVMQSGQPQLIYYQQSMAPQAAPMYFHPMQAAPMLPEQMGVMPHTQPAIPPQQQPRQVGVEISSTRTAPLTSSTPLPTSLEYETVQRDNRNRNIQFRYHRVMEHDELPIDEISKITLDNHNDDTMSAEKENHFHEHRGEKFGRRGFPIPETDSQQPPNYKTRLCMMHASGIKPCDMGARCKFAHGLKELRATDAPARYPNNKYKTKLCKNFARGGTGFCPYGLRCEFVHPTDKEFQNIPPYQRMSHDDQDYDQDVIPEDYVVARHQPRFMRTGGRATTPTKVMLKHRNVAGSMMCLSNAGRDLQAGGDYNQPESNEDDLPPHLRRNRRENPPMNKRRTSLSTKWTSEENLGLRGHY

[3] = Luminescence Cell-Based Dose Retest to Confirm Inhibitors of Cancer Stem Cells. [Related pubchem assays (depositor defined):AID2717, AID2721]; type: functional; conditions: Homo sapiens
cells [4] = type: functional, cell-based
[5] = inhibitors of intracellular T. cruzi replication, confirmation, NIH3T3 host cells, beta-gal luminescence (AID 2044); type: functional, cell-based;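 also: intracellular parasites grown in NIH/3T3 mouse fibroblasts as host cells; luminescent beta-galactosidase reporter signal from transgenic T. cruzi replicating inside host cells; inhibitors lower the luminescence signal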
cells [6] = type: functional, cell-based; remark: listed apart in the source
[7] = cytotoxicity toward NIH3T3 fibroblasts, dose response, counter-screen, cell-based, ATP luminescence, mouse fibroblasts (AID 2010); type: functional;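 also: cells exposed to compound for about 90 hours before reading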
INS1 = assay: beta cell apoptosis inhibitors, cytokine rescue, dose response, luminescence, retest (AID 449756); type: functional, cell-based; conditions: Rattus norvegicus, INS1;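 also: cell death triggered by IL-1 beta plus TNF-alpha plus IFN-gamma mixture; protective hits raise ATP signal compared with cytokine alone wells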
[8] = target: T3, Corticotropin-releasing factor receptor 2/Corticotropin-releasing factor-binding protein (Homo sapiens, UniProt P24387+Q13324); assay: Dose Response confirmation of uHTS hits for small molecule antagonists of the CRF-binding protein and CRF-R2 receptor complex.; type: functional; conditions: read-out: IC50_Mean
T3 sequence (Q13324 whole entry): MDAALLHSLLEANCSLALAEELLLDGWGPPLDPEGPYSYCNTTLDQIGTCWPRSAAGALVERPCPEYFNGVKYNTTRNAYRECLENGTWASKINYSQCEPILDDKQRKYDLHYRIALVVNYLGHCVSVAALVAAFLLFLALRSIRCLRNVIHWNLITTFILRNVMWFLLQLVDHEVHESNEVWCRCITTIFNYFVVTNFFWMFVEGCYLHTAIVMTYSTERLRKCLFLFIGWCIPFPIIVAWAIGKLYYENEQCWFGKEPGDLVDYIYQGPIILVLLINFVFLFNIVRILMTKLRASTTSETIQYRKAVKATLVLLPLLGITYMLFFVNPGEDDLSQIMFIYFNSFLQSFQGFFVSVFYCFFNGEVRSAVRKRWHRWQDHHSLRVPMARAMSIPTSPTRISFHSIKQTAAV
T3 sequence (P24387 whole entry): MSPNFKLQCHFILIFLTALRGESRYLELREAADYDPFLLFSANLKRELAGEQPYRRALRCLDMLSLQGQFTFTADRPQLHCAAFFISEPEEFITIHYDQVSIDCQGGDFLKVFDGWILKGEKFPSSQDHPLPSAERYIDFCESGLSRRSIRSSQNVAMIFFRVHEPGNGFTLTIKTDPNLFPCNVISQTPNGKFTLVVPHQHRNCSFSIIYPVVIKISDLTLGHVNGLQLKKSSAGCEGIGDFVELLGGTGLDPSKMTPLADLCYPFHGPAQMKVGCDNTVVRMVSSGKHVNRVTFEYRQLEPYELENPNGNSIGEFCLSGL

[9] = target: T3, Corticotropin-releasing factor receptor 2/Corticotropin-releasing factor-binding protein; assay: activators of CRF receptor 2 with binding protein – uHTS hits, confirmation (AID 602473); type: functional; conditions: read-out: EC50_Mean
[10] = HEp-2 cell cytotoxicity, dose response, cytotoxicity control for RSV inhibitor project, HTS (AID 2410); type: functional; conditions: human respiratory syncytial virus
Cytochrome P450 3A4 = Cytochrome P450 3A4 (Homo sapiens, UniProt P08684);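 also: CYP3A4 tested as one member of a cytochrome P450 panel screen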
Sequence of Cytochrome P450 3A4 (P08684 whole entry): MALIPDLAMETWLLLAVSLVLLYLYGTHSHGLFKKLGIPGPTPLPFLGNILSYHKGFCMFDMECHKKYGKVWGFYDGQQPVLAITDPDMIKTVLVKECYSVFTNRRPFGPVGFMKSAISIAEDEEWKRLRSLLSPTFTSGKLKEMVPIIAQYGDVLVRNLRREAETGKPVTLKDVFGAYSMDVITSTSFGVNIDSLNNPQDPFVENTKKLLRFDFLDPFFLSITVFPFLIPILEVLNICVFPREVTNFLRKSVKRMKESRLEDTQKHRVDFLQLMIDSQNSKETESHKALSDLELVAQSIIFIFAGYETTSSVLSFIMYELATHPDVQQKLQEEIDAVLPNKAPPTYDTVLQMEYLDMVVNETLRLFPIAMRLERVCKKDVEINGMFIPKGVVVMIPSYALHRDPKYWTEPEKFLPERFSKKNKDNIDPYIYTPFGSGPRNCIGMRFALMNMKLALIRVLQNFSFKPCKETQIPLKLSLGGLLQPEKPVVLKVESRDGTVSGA

Sequence of Cytochrome P450 2C9 (P11712 whole entry, the tested form may be a part): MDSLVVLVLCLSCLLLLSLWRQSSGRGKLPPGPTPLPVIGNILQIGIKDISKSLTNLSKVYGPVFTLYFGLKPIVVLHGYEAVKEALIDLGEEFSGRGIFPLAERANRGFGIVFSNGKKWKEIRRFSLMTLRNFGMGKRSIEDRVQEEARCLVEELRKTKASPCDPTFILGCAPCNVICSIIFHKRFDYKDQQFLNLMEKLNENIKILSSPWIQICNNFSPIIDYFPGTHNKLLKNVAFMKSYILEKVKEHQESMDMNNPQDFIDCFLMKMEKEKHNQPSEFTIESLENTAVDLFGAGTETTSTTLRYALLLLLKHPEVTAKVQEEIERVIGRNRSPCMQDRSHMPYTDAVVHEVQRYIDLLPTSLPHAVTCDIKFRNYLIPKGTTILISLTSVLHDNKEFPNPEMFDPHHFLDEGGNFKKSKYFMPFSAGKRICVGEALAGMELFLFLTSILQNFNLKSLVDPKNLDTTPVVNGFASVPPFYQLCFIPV

Cc1ccccc1C(=O)NNC(=O)c1ccc(F)cc1
AC50 (Cytochrome P450 2C9): inconclusive

CCCn1nc(C(=O)Nc2ccc(S(=O)(=O)Nc3nccs3)cc2)c2ccccc2c1=O
EC50 [1]: > 150 µM (not active)
EC50 [2]: 27.8 µM (active)

CC(C)(c1ccccc1)c1ccc(OCCN2CCCC2)cc1
AC50 [3]: 0.824 µM (active)

Cc1ccc2nc(-c3ccccn3)c(Nc3ccccc3C)n2c1
EC50 (cells [4]): 18.6 µM (active)
EC50 [5]: 1.74 µM (active)
EC50 (cells [6]): > 350 µM (not active)
EC50 [7]: 5.84 µM (active)
AC50 [3]: 5.42 µM (active)
AC50 (INS1): 6.06 µM (active)

COc1ccc(CCN2C(=O)NC(=O)/C(=C\NNC(=O)c3ccncc3)C2=O)cc1OC
EC50 [2]: 43.7 µM (active)

O=C(Nc1ccc(N2CCN(c3ccccc3)CC2)c(F)c1)C1CC1
IC50 [8]: > 47.1 µM (inactive)
EC50 [9]: > 53 µM (inactive)

Cc1cc(C)c(NC(=O)c2ccc(CNS(=O)(=O)c3cc(C(F)(F)F)ccc3Cl)cc2)c(C)c1
IC50 [8]: > 47.1 µM (inactive)
EC50 [9]: > 53 µM (inactive)

COc1ccc(C(=O)Nc2ccc(Nc3ccccc3)cc2)cc1[N+](=O)[O-]
CC50 [10]: 12.2 µM (active)
AC50 [3]: 2.69 µM (active)

CCCCNC(=S)NNC(=O)c1cc(C)on1
EC50 [1]: > 300 µM (not active)
EC50 [2]: > 300 µM (not active)

O=S(=O)(NCc1cc(-c2ccccc2Cl)no1)c1ccc(Cl)cc1
AC50 (Cytochrome P450 3A4): 20 µM (inconclusive)
AC50 (Cytochrome P450 2C9): inconclusive

N#Cc1c(-c2ccccc2Cl)c2c([nH]c1=O)-c1ccccc1OC2
EC50 [1]: > 300 µM (inconclusive)
EC50 [2]: 38.8 µM (active)

O=C(NCC1COc2ccccc2O1)C1CCN(S(=O)(=O)c2cccc3nsnc23)CC1 (configuration not stated)
AC50 (Cytochrome P450 2C9): inconclusive

COCc1ccc(CN2CCC(C(=O)Nc3cccc(-c4cscn4)c3)CC2)o1
IC50 [8]: > 47.1 µM (inactive)
EC50 [9]: > 53 µM (inactive)

Cn1cc(C(=O)C(=O)N[C@H]2CN3CCC2CC3)c2ccccc21
AC50 (Cytochrome P450 2C9): inconclusive

COC(=O)N/N=C(\C)c1cccs1
IC50 [8]: > 47.1 µM (inactive)
EC50 [9]: > 53 µM (inactive)

O=[N+]([O-])c1cc(/C=N\O)ccc1Oc1ccc(F)cc1
IC50 [8]: 24.9 µM (active)
EC50 [9]: > 53 µM (inactive)

CCOc1ccc(Cc2nc(C)c(CC(=O)N3CCOCC3)c(O)n2)cc1
AC50 (Cytochrome P450 2C9): inconclusive
